# Patent US4508648A, “Phosphoric ester of antibiotic OA-6129” (Sanraku-Ocean Co., Ltd., priority 1981, dated 1985)
# Read-outs that look alike come from different tables or passages of the source.
# Columns and labels:
# Proteus sp. P-22 = assay: Minimum inhibitory concentration, agar dilution technique; assay type: cell-based; conditions: beta-lactam-resistant strain; heart infusion agar; inoculum 10^6 cells/ml; read-out: Minimum Inhibitory Concentration (M.I.C.)
# Description: (§1) Minimum Inhibitory Concentration (M.I.C. in μg/ml)**
# (§2) *Beta-lactam-resistant strain.
# (§3) **Medium heartinfusion agar (Difco Lab.); inoculum size 10^6 cells/ml
# (§4) determined by the agar dilution technique
# [1] = tested on: Klebsiella pneumoniae K13; assay: as above; assay type: cell-based
# Description: as §1, §2, §3, §4
# Serratia marcescens S-18 = assay: as above; assay type: cell-based
# Description: as §1, §2, §3, §4
# [2] = tested on: Citrobacter freundii GN346; assay: as above; assay type: cell-based; conditions: beta-lactam-resistant strain, heart infusion agar, inoculum 10^6 cells/ml, read-out: Minimum Inhibitory Concentration (M.I.C.)
# Description: as §1, §2, §3, §4
# Enterobacter cloacae 45 = assay: as above; assay type: cell-based; conditions: beta-lactam-resistant strain, heart infusion agar, inoculum 10^6 cells/ml, read-out: Minimum Inhibitory Concentration (M.I.C.)
# Description: as §1, §2, §3, §4
# Serratia marcescens T55 = assay: as above; assay type: cell-based; conditions: beta-lactam-resistant strain, heart infusion agar, inoculum 10^6 cells/ml, read-out: Minimum Inhibitory Concentration (M.I.C.)
# Description: as §1, §2, §3, §4
# [3] = tested on: Enterobacter aerogenes E-19; assay: as above; assay type: cell-based; conditions: Klebsiella aerogenes, E19; beta-lactam-resistant strain; heart infusion agar; inoculum 10^6 cells/ml; read-out: Minimum Inhibitory Concentration (M.I.C.)
# Description: as §1, §2, §3, §4
# Escherichia coli RGN823 = assay: as above; assay type: cell-based; conditions: RGN823, read-out: Minimum Inhibitory Concentration (M.I.C.)
# Description: as §1, §2, §3, §4
# [4] = tested on: Pseudomonas aeruginosa IFO 3445; assay: as above; assay type: cell-based; conditions: IFO3445, beta-lactam-resistant strain, heart infusion agar, inoculum 10^6 cells/ml, read-out: Minimum Inhibitory Concentration (M.I.C.)
# Description: as §1, §2, §3, §4
# [5] = tested on: Pseudomonas aeruginosa NCTC 10490; assay: as above; assay type: cell-based; conditions: NCTC10490, beta-lactam-resistant strain, heart infusion agar, inoculum 10^6 cells/ml, read-out: Minimum Inhibitory Concentration (M.I.C.)
# Description: as §1, §2, §3, §4
# Proteus vulgaris GN76 = assay: as above; assay type: cell-based; conditions: beta-lactam-resistant strain, heart infusion agar, inoculum 10^6 cells/ml, read-out: Minimum Inhibitory Concentration (M.I.C.)
# Description: as §1, §2, §3, §4
# [6] = Relative stability in kidney homogenate of mouse; assay type: in vitro ADME; conditions: 37° C., 60 minutes, drug solution 100-300 μg/ml, read-out: Relative stability: drug remaining as a percentage of initial concentration
# Description: (§5) *A drug solution (100-300 μg/ml) (0.1 ml) and a kidney homogenate (0.1
# (§6) ml) were allowed to react at 37° C. for 60 minutes and the mixture
# (§7) was immediately heattreated at 100° C. for 15 seconds. After
# (§8) centrifugation, the concentration of the drug remaining in the supernatan
# (§9) solution was bioassayed as a percentage of initial concentration by
# (§10) Comamonas terrigena B996.
# (§11) An overnight culture of Comamonas terrigena B-996 on a nutrient agar slant was suspended in nutrient broth to give a cell suspension of absorbance 0.04 at 610 nm. One percent of the cell suspension in volume was inoculated into molten agar medium containing 0.8% in weight of Kyokuto powdered bouillon (Kyokuto Pharmaceutical Co.) and 1.0% in weight of Bato-agar (Difco Lab.), and 7 ml each of the inoculated agar medium was poured into a 9 cm petri dish to make a Comamonas assay plate.
# [7] = tested on: Staphylococcus aureus 209P; assay: Minimum inhibitory concentration, agar dilution technique; assay type: cell-based; conditions: read-out: Minimum Inhibitory Concentration (M.I.C.)
# Description: as §1, §3, §4
# Proteus rettgeri P-6 = assay: as above; assay type: cell-based; conditions: Providencia rettgeri
# Description: as §1, §3, §4
# Proteus mirabilis P-6 = assay: as above; assay type: cell-based; conditions: P6, heart infusion agar, inoculum 10^6 cells/ml, read-out: Minimum Inhibitory Concentration (M.I.C.)
# Description: as §1, §3, §4
# [8] = tested on: Staphylococcus epidermidis; assay: as above; assay type: cell-based; conditions: heart infusion agar, inoculum 10^6 cells/ml, read-out: Minimum Inhibitory Concentration (M.I.C.)
# Description: as §1, §3, §4
# [9] = tested on: Staphylococcus aureus Smith; assay: as above; assay type: cell-based; conditions: read-out: Minimum Inhibitory Concentration (M.I.C.)
# Description: as §1, §3, §4
# [10] = tested on: Bacillus subtilis ATCC 6633; assay: as above; assay type: cell-based
# Description: as §1, §3, §4
# Providencia sp. P-8 = assay: as above; assay type: cell-based
# Description: as §1, §3, §4
# [11] = tested on: Comamonas terrigena B-996; assay: as above; assay type: cell-based; conditions: B996, heart infusion agar, inoculum 10^6 cells/ml, read-out: Minimum Inhibitory Concentration (M.I.C.)
# Description: as §1, §3, §4
# Alcaligenes faecalis A1 = assay: as above; assay type: cell-based; conditions: heart infusion agar, inoculum 10^6 cells/ml, read-out: Minimum Inhibitory Concentration (M.I.C.)
# Description: as §1, §3, §4
# Escherichia coli K-12 = assay: as above; assay type: cell-based; conditions: K12, heart infusion agar, inoculum 10^6 cells/ml, read-out: Minimum Inhibitory Concentration (M.I.C.)
# Description: as §1, §3, §4
# [12] = tested on: Staphylococcus aureus Russell; assay: as above; assay type: cell-based; conditions: heart infusion agar, inoculum 10^6 cells/ml, read-out: Minimum Inhibitory Concentration (M.I.C.)
# Description: as §1, §3, §4
# Sarcina lutea = assay: as above; assay type: cell-based; conditions: Micrococcus luteus; heart infusion agar; inoculum 10^6 cells/ml; read-out: Minimum Inhibitory Concentration (M.I.C.)
# Description: as §1, §3, §4
# Enterobacter sp. E-8 = assay: as above; assay type: cell-based; conditions: SP.E8, heart infusion agar, inoculum 10^6 cells/ml, read-out: Minimum Inhibitory Concentration (M.I.C.)
# Description: as §1, §3, §4
# [13] = Relative stability in kidney homogenate of man; assay type: in vitro ADME; conditions: human (man) kidney homogenate; 37° C., 60 minutes; drug solution 100-300 μg/ml; read-out: Relative stability: drug remaining as a percentage of initial concentration
# Description: as §5, §6, §7, §8, §9, §10, §11
# [14] = Relative stability in kidney homogenate of dog; assay type: in vitro ADME; conditions: 37° C., 60 minutes, drug solution 100-300 μg/ml, read-out: Relative stability: drug remaining as a percentage of initial concentration
# Description: as §5, §6, §7, §8, §9, §10, §11
# [15] = Relative stability in phosphate buffer, pH 7.0 (control); assay type: physicochemical; conditions: 37° C., 60 minutes, drug solution 100-300 μg/ml, read-out: Relative stability: drug remaining as a percentage of initial concentration
# Description: as §5, §6, §7, §8, §9, §10, §11
# [16] = K13, beta-lactam-resistant strain, heart infusion agar, inoculum 10^6 cells/ml, read-out: Minimum Inhibitory Concentration (M.I.C.)
# [17] = S18, beta-lactam-resistant strain, heart infusion agar, inoculum 10^6 cells/ml, read-out: Minimum Inhibitory Concentration (M.I.C.)
# [18] = heart infusion agar, inoculum 10^6 cells/ml
# [19] = P6, heart infusion agar, inoculum 10^6 cells/ml, read-out: Minimum Inhibitory Concentration (M.I.C.)
# [20] = ATCC6633, heart infusion agar, inoculum 10^6 cells/ml, read-out: Minimum Inhibitory Concentration (M.I.C.)
# [21] = SP.P8, heart infusion agar, inoculum 10^6 cells/ml, read-out: Minimum Inhibitory Concentration (M.I.C.)
SMILES,MIC (Proteus sp. P-22) [µg/mL],MIC [2] [µg/mL],MIC (Enterobacter cloacae 45) [µg/mL],MIC (Serratia marcescens T55) [µg/mL],MIC [3] [µg/mL],MIC (Escherichia coli RGN823) [µg/mL],MIC [4] [µg/mL],MIC [5] [µg/mL],MIC (Proteus vulgaris GN76) [µg/mL],remaining at 1 h [6] [%],MIC (Proteus mirabilis P-6) [µg/mL],MIC [8] [µg/mL],MIC [11] [µg/mL],MIC (Alcaligenes faecalis A1) [µg/mL],MIC (Escherichia coli K-12) [µg/mL],MIC [12] [µg/mL],MIC (Sarcina lutea) [µg/mL],remaining at 1 h [13] [%],remaining at 1 h [14] [%],remaining at 1 h [15] [%],further results
CCC1C(=O)N2C(C(=O)O)=C(SCCNC(=O)CCNC(=O)C(O)C(C)(C)CO)CC12 (centres unmarked) [Antibiotic OA-6129A],100,50,50,100,25,12.5,> 100,> 100,100,7,50,1.56,0.05,1.56,12.5,0.78,6.25,57,25,100,"MIC [1, 16]: 50 µg/mL; MIC (Serratia marcescens S-18; [17]): 100 µg/mL; MIC [7, 18]: 0.78 µg/mL; MIC (Proteus rettgeri P-6; [19]): 25 µg/mL; MIC [9, 18]: 1.56 µg/mL; MIC [10, 20]: 0.39 µg/mL; MIC (Providencia sp. P-8; SP.P8, read-out: Minimum Inhibitory Concentration (M.I.C.)): 12.5 µg/mL; MIC (Enterobacter sp. E-8): 12.5 µg/mL"
CC(O)C1C(=O)N2C(C(=O)O)=C(SCCNC(=O)CCNC(=O)C(O)C(C)(C)CO)CC12 (centres unmarked) [Antibiotic OA-6129B],,,,,,,,,,20,,,,,,,,47,20,98,
CCC1C(=O)N2C(C(=O)O)=C(SCCNC(C)=O)CC12 (centres unmarked) [Antibiotic PS-5],,,,,,,,,,10,,,,,,,,28,10,100,
Cc1nnc(SCC2=C(C(=O)O)N3C(=O)[C@@H](NC(=O)Cn4cnnn4)[C@H]3SC2)s1 [Cefazolin],> 400,> 400,> 400,> 400,> 400,1.56,> 400,> 400,> 400,,6.25,0.2,0.1,3.13,1.56,0.2,0.39,,,,"MIC [1, 16]: 12.5 µg/mL; MIC (Serratia marcescens S-18; [17]): > 400 µg/mL; MIC [7, 18]: 0.05 µg/mL; MIC (Proteus rettgeri P-6; [19]): 3.13 µg/mL; MIC [9, 18]: 0.2 µg/mL; MIC [10, 20]: 0.1 µg/mL; MIC (Providencia sp. P-8; [21]): 0.78 µg/mL; MIC (Enterobacter sp. E-8): 1.56 µg/mL"
CCC1C(=O)N2C(C(=O)O)=C(SCCNC(=O)CCNC(=O)C(O)C(C)(C)COP(=O)(O)O)CC12 (centres unmarked) [Phosphoric ester of antibiotic OA-6129A],25,> 25,25,> 25,12.5,3.13,> 25,> 25,25,47,25,6.25,0.05,1.56,3.13,6.25,6.25,96,18,114,"MIC [1, 16]: 25 µg/mL; MIC (Serratia marcescens S-18; [17]): 25 µg/mL; MIC [7, 18]: 1.56 µg/mL; MIC (Proteus rettgeri P-6; [19]): 12.5 µg/mL; MIC [9]: 3.13 µg/mL; MIC ([10]; ATCC6633, read-out: Minimum Inhibitory Concentration (M.I.C.)): 3.13 µg/mL; MIC (Providencia sp. P-8; [21]): 6.25 µg/mL; MIC (Enterobacter sp. E-8): 3.13 µg/mL"
CC(O)C1C(=O)N2C(C(=O)O)=C(SCCNC(=O)CCNC(=O)C(O)C(C)(C)COP(=O)(O)O)CC12 (centres unmarked) [Phosphoric ester of antibiotic OA-6129B],25,> 25,> 25,25,25,12.5,> 25,> 25,25,42,25,> 25,0.39,6.25,12.5,> 25,> 25,72,29,100,"MIC ([1]; K13, read-out: Minimum Inhibitory Concentration (M.I.C.)): 12.5 µg/mL; MIC (Serratia marcescens S-18; S18, read-out: Minimum Inhibitory Concentration (M.I.C.)): 12.5 µg/mL; MIC [7]: 12.5 µg/mL; MIC (Proteus rettgeri P-6; P6, read-out: Minimum Inhibitory Concentration (M.I.C.)): 12.5 µg/mL; MIC [9, 18]: > 25 µg/mL; MIC [10, 20]: 25 µg/mL; MIC (Providencia sp. P-8; [21]): 6.25 µg/mL; MIC (Enterobacter sp. E-8): 12.5 µg/mL"
